Measured values reported in patent US11478477B2, “Method for treating cancer by combination of FAK/ALK/ROS1 inhibitor and EGFR inhibitor” (ASCENTAGE PHARMA (SUZHOU) CO., LTD., priority 2018, dated 2022).
Where two headings read alike, the source gives them in different places. Marks after values point to notes of the source that are not given here.

Key:
[1] = test system: human NCI-H1975 xenograft tumor model; experiment: Example 8: Compound 5 or Ensartinib with Avitinib in xenograft tumor model; assay type: in vivo, mouse; details: Compound 5 50 mg/kg; Ensartinib 20 mg/kg; Avitinib 10 mg/kg; orally, once per day, 21 days
Description: (§1) The dosage regimen was as follows:

[2] = test system: human NCI-H1975 xenograft tumor model; experiment: Example 9: Compound 5 with AZD9291 or Avitinib in xenograft tumor model; assay type: in vivo, mouse; details: Compound 5 50 mg/kg, AZD9291 2 mg/kg, Avitinib 10 mg/kg, orally, once per day
Description: as §1

[3] = test system: NCI-H1975 tumor cells; experiment: WST (CCK-8) anti-proliferation experiment, single drugs and combinations; assay type: cell-based; details: Homo sapiens, NCI-H1975, 72 hours
Procedure: Cell plating: Anti-proliferative effects were detected by a CCK-8 (Cell Counting Kit-8) assay based on water soluble tetrazolium salt (WST). The cells were seeded in 96-well plates, and only 95 μL of complete medium was added to each negative control group. 95 μL of complete medium cell suspension was added to each well to be tested, and the cell density was […]. Dosing (protection from light): In 96-well culture plates, according to the sensitivity of different cells to different drugs, the highest concentration was selected as 10 μM, and 9 concentrations were obtained by serial dilution in a ratio of 1:3.5 μL of compound was added to each well and 2-3 replicate wells were made for per concentration. After the compound was added, 96-well plates were incubated in a 5% CO2 incubator at 37° C. After 72 hours of action by using 9 different concentrations of the drug with 3 fixed doses of Compound 5, the combination effect of Compound 5 and the drug was tested. Reading: At the end of the culture, the old solution was removed from the well to be tested, and 100 μl/well CCK-8 test solution (containing 10% CCK-8, 5% FBS in the corresponding medium) was added. The plates were continuously incubated at 37° C. for 2-4 hours in a CO2 incubator. The OD values were measured using a microplate reader (SpectraMax Plus 384, Molecular Devices, LLC., US) under A450 nm. […] (O.D. of test well−O.D. of blank control well)/(O.D. of cell control well−O.D. of blank control well)×100%. IC50 values were calculated using Graphpad Prism 6.0 software for nonlinear regression data analysis method.

[4] = test system: human NCI-H1975 lung cancer mouse xenograft tumor model; experiment: Example 4: Compound 5 with AZD9291 or afatinib in xenograft tumor model; assay type: in vivo; details: for RTV on Day 15 after administration (mean ± standard error) / T/C on Day 15 after administration (%): Compound 5 100 mg/kg, AZD9291 5 then 2 mg/kg, afatinib 10 then 5 mg/kg, orally, once per day
Description: Subsequently, a H1975 cell-derived mouse xenograft tumor model was established to evaluate the anti-tumor effects of Compound 5 in combination with EGFR inhibitor AZD9291 (osimertinib) or afatinib.

[5] = single EGFR inhibitor, read-out: Compound B IC50

| Compound | RTV on Day 21 after administration (mean ± standard error) [1] | T/C on Day 21 after administration (%) [1] | RTV on Day 11 after administration (mean ± standard error) [2] | T/C on Day 11 after administration (%) [2] | RTV on Day 15 after administration (mean ± standard error) [2] | T/C on Day 15 after administration (%) [2] | IC50 [3, 5] | RTV on Day 15 after administration (mean ± standard error) [4] | T/C on Day 15 after administration (%) [4] | T/C on Day 15 after administration (%) ([4]; listed as Afatinib) | IC50 ([3]; single drug, read-out: Compound A IC50) | tumor after discontinuation of administration ([4]; after discontinuation of administration) |
| --- | --- | --- | --- | --- | --- | --- | --- | --- | --- | --- | --- | --- |
| C=CC(=O)Nc1cccc(Oc2nc(Nc3ccc(N4CCN(C)CC4)c(F)c3)nc3[nH]ccc23)c1 [Avitinib] | 13.29 ± 2.65 | 83.1% | 5.9 ± 0.4 | 82.0% | 7.8 ± 0.7 | 72.4% | – | – | – | – | – | – |
| CN(C)C/C=C/C(=O)Nc1cc2c(Nc3ccc(F)c(Cl)c3)ncnc2cc1O[C@H]1CCOC1 [afatinib] | – | – | – | – | – | – | 337 nM | 15.5 ± 1.5 | 74% | 74.0% | – | – |
| Cc1cc(Nc2ncc(Cl)c(Nc3ccccc3S(=O)(=O)C(C)C)n2)c(OC(C)C)cc1C1=CCN(C2CCOCC2)CC1 [Compound 5, 5-chloro-N^2-(2-isopropoxy-5-methyl-4-(1-(tetrahydro-2H-pyran-4-yl)-1,2,3,6-tetrahydropyridin-4-yl)phenyl)-N^4-(2-(isopropylsulfonyl)phenyl)pyrimidine-2,4-diamine] | 12.8 ± 1.5 | 80% | 8.2 ± 0.5 | 113.8% | 10.3 ± 1.1 | 95.6% | – | 13.8 ± 1.8 | 66.0% | – | 3550 ± 1110 nM | – |
| C[C@@H]1CN(C(=O)c2ccc(NC(=O)c3cc(O[C@H](C)c4c(Cl)ccc(F)c4Cl)c(N)nn3)cc2)C[C@H](C)N1 [Ensartinib] | 9.5 ± 1.1 | 61.3% | – | – | – | – | – | – | – | – | – | – |
| C=CC(=O)Nc1cc(Nc2nccc(-c3cn(C)c4ccccc34)n2)c(OC)cc1N(C)CCN(C)C [AZD9291, osimertinib] | – | – | 1.6 ± 0.3 | 1.6** % | 1.8 ± 0.2 | 16.8% | 410 nM | 1.4 ± 0.2 | 6% | – | – | tumor rebound was gradually observed |
